Test results from patent publication US9115092B2, “Substituted quinazoline and pyrido-pyrimidine derivatives” (Asana Biosciences, LLC, priority 2010, dated 2015).

Key:
[1] = tested on: pS6RP(S235/236), PC3 cells; experiment: In-cell Western assay, pS6RP(S235/236) in PC3 cells; assay type: cell-based, human
Protocol: Cells from human prostate cancer cell line PC3 (American Type Culture Collection (ATCC), Manassas, Va. 20108 USA) were seeded at an optimal density of 22,000 cell/well in 96-well plates containing Ham's F12K medium (90 μL) and incubated overnight. The compound dilutions were carried out in 100% DMSO followed by a dilution in the medium. Test compounds were added in serial dilutions to the wells and incubated for 2 h. The cells were washed and fixed with 4% paraformaldehyde. After incubation at room temperature for 1 h in the dark, blocking was done for 2 h at room temperature. Primary antibodies for phosphorylated (p) AKT(5473) (phosphorylated at serine 473), pAKT(T308) (phosphorylated at threonine 308) and for pS6RP(S235/236) (phosphorylated at serine 235/236) (commercially available from Cell Signaling Technology®, whose protocol was followed for the in-cell western assay, were diluted to the required concentration and added to the corresponding wells followed by overnight incubation at 4° C. Eu-labeled rabbit (PE) (Perkin-Elmer USA catalog #AD0106) secondary antibody was added and incubated for 2 h at room temperature. Delfia® enhancement solution (cat #1244-105, Perkin Elmer USA) was subsequently added to the plate before taking the reading at 615 nm with excitation wavelength of 340 nm, after which 0.5 μg/mL of Hoechst® 33258 dye (Catalog #86140-5, Sigma) was added to the plate and fluorescence emission was read at 460 nm with 355 nm excitation, to evaluate the correction factor. IC50 values were calculated using a sigmoidal dose-response curve fit in GraphPad Prism® v5 software.

PC3 cells = experiment: XTT assay for cell viability, PC3 cells; assay type: cell-based, human
Summary of the method: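 PC3 cells seeded at 1000 cells/well, grown 24 h, then exposed to serial dilutions of compound for 96 h. Viability read by XTT dye at 37° C, absorbance 465 nm. EC50 from sigmoidal dose-response fit.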

mTOR kinase = molecular target: T1, mTOR kinase (Homo sapiens, UniProt P42345); experiment: mTOR kinase TR-FRET assay; assay type: biochemical; settings: read-out: mTO R
T1 construct: purchased Millipore, USA
Summary of the method: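 Compounds preincubated 60 min with mTOR (5 ng) in HEPES pH 7.5, EGTA, MnCl2; ULight-p70 S6K Thr389 peptide (50 nM) and ATP (20 μM) then added, 60 min at room temperature. EDTA-stopped, Eu-anti-phospho antibody detection by TR-FRET (665/615 nm); IC50 from variable-slope sigmoidal fit.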

[2] = molecular target: T2, PI3Kα (wild-type), P110/P85α (Homo sapiens, UniProt P42336); experiment: PI3 Kinase TR-FRET assay, PI3Kα (wild-type); assay type: biochemical
T2 construct: made in house; host or cells: SF9 insect cells
T2 sequence (P42336 whole entry): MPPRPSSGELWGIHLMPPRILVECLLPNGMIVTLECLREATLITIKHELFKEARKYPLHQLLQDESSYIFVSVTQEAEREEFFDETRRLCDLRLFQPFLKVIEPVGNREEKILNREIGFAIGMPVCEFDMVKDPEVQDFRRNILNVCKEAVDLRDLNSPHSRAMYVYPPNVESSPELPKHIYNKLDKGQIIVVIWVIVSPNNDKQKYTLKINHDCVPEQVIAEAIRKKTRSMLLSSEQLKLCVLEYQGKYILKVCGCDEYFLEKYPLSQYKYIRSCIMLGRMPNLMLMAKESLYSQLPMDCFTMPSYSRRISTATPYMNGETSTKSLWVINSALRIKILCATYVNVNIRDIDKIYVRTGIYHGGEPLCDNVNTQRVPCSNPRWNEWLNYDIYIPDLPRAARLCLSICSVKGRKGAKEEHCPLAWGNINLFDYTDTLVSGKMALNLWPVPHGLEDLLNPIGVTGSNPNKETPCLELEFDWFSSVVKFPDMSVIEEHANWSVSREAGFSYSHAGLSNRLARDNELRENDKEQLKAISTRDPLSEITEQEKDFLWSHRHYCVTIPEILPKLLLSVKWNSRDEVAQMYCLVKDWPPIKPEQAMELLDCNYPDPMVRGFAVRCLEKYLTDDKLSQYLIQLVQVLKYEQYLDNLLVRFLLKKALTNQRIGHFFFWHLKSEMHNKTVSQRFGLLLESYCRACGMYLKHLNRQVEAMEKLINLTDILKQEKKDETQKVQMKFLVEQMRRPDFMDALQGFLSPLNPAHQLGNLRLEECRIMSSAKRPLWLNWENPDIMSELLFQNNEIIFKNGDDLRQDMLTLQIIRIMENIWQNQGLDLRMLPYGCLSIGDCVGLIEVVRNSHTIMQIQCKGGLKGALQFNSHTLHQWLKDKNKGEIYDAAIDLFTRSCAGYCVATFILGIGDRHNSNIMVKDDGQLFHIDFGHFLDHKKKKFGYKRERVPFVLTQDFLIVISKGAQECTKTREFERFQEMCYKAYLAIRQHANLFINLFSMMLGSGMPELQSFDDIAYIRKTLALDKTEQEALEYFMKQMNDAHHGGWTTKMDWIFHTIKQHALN
T2 sequence (P27986 whole entry partner): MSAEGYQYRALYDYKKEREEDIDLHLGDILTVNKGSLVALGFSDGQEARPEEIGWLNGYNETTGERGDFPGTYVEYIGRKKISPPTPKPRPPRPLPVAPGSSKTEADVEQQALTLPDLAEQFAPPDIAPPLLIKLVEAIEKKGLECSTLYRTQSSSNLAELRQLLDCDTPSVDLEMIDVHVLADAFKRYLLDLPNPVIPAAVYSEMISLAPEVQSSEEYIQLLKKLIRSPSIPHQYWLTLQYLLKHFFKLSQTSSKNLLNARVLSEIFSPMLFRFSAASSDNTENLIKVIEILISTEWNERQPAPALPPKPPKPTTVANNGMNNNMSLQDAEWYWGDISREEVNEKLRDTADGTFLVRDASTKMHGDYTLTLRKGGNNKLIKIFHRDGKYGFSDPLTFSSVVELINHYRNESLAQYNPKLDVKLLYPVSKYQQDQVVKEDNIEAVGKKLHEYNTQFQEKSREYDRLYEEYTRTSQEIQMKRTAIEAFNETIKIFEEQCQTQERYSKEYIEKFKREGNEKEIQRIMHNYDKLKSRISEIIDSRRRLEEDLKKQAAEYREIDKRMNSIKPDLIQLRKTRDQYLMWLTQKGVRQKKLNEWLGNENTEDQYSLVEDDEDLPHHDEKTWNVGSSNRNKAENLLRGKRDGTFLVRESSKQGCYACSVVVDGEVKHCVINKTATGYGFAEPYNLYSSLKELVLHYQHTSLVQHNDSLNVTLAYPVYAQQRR
Summary of the method: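 Sf9-expressed His-purified P110/P85α (5 ng) preincubated 60 min RT with compound and PIP2 in buffer with 40 mM MgCl2, 5 mM DTT; reaction started with ATP (PIP2 and ATP both 10 μM), 30 min RT. PIP3 detected by TR-FRET displacement, 665/615 nm ratio; IC50 from dose-response curves.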

[3] = Homo sapiens, PC-3, In-cell Western
[4] = Homo sapiens, PC-3, cell viability

SMILES | IC50 [1, 3] [nM] | IC50 (PC3 cells; [4]) [nM] | IC50 (mTOR kinase) [nM] | IC50 [2] [nM] | IC50 ([1]; In-cell Western) [nM] | IC50 (PC3 cells; cell viability) [nM]
Cc1ccc(-c2ccc3c(N4CCOCC4)nc(-c4ccc(NC(=O)Nc5ccc(C(=O)N6CCC(N(C)C)CC6)cc5)cc4)nc3c2)o1 [Example 191, 1-(4-(4-(dimethylamino)piperidine-1-carbonyl)phenyl)-3-(4-(7-(5-methylfuran-2-yl)-4-morpholino-quinazolin-2-yl)phenyl)urea] | 201 to 10000 | 201 to 10000 | 50 to 200 | 201 to 10000 |  | 
CN(C)C(=O)c1ccc(NC(=O)Nc2ccc(-c3nc(N4CCOCC4)c4ncc(-c5cnn(C)c5)cc4n3)c(F)c2)cc1 [Example 238, 4-(3-(3-fluoro-4-(7-(1-methyl-1H-pyrazol-4-yl)-4-morpholino-pyrido[3,2-d]pyrimidin-2-yl)phenyl)ureido)-N,N-dimethyl-benzamide] | 201 to 10000 | 201 to 10000 | < 50 | < 50 |  | 
CN(C)C(=O)c1ccc(NC(=O)Nc2ccc(-c3nc(N4CCOCC4)c4ccc(-c5cncnc5)cc4n3)c(F)c2)cc1 [Example 237, 4-(3-(3-fluoro-4-(4-morpholino-7-(pyrimidin-5-yl)quinazolin-2-yl)phenyl)ureido)-N,N-dimethyl-benzamide] | 201 to 10000 | 201 to 10000 | < 50 | < 50 |  | 
CN1CCN(C(=O)c2ccc(NC(=O)Nc3ccc(-c4nc(N5CCOCC5)c5cc(F)c(-c6cccnc6)cc5n4)cc3F)cc2)CC1 [Example 211, 1-(2-fluoro-4-(6-fluoro-4-morpholino-7-(pyridin-3-yl)quinazolin-2-yl)phenyl)-3-(4-(4-methylpiperazine-1-carbonyl)phenyl)urea] | 201 to 10000 | < 100 | < 50 | < 50 |  | 
Cc1ccc(-c2cc3nc(-c4ccc(NC(=O)Nc5ccc(C(=O)N(C)C)cc5)cc4)nc(N4CCOCC4)c3cc2F)o1 [Example 87, 4-(3-(4-(6-fluoro-7-(5-methylfuran-2-yl)-4-morpholino-quinazolin-2-yl)phenyl)ureido)-N,N-dimethyl-benzamide] | < 100 | < 100 | < 50 | 50 to 200 |  | 
CN(C)C(=O)c1ccc(NC(=O)Nc2ccc(-c3nc(N4CCOCC4)c4ccc(C(C)(C)O)cc4n3)cc2)cc1 [Example 16, 4-(3-(4-(7-(2-hydroxypropan-2-yl)-4-morpholino-quinazolin-2-yl)phenyl)ureido)-N,N-dimethyl-benzamide] | 201 to 10000 | 201 to 10000 | < 50 | < 50 |  | 
CN(C)C(=O)c1ccc(NC(=O)Nc2ccc(-c3nc(N4CCOCC4)c4ncc(-c5cccnc5)cc4n3)cc2F)cc1 [Example 102, 4-(3-(2-fluoro-4-(4-morpholino-7-(pyridin-3-yl)pyrido[3,2-d]pyrimidin-2-yl)phenyl)ureido)-N,N-dimethyl-benzamide] | 201 to 10000 | 201 to 10000 | < 50 | < 50 |  | 
CN(C)C(=O)c1ccc(NC(=O)Nc2ccc(-c3nc(N4CCOCC4)c4ccc(-c5cccnc5F)cc4n3)cc2F)cc1 [Example 91, 4-(3-(2-fluoro-4-(7-(2-fluoropyridin-3-yl)-4-morpholino-quinazolin-2-yl)phenyl)ureido)-N,N-dimethyl-benzamide] | 201 to 10000 | 201 to 10000 | < 50 | < 50 |  | 
CN(C)C(=O)c1ccc(NC(=O)Nc2ccc(-c3nc(N4CCOCC4)c4ncc(-c5cnn(C)c5)cc4n3)cn2)cc1 [Example 85, N,N-dimethyl-4-(3-(5-(7-(1-methyl-1H-pyrazol-4-yl)-4-morpholino-pyrido[3,2-d]pyrimidin-2-yl)pyridin-2-yl)ureido)-benzamide] | 201 to 10000 | 201 to 10000 | < 50 | < 50 |  | 
COc1cccc(-c2ccc3c(N4CCOCC4)nc(-c4ccc(NC(=O)Nc5ccc(C(=O)N(C)C)cc5)cc4)nc3c2)n1 [Example 95, 4-(3-(4-(7-(6-methoxypyridin-2-yl)-4-morpholino-quinazolin-2-yl)phenyl)ureido)-N,N-dimethyl-benzamide] | 501 to 5000 | < 100 | 50 to 200 | 50 to 200 |  | 
CC1CN(c2nc(-c3ccc(NC(=O)Nc4ccc(C(=O)N(C)C)cc4)c(F)c3)nc3cc(-c4cncnc4)ccc23)CC(C)O1 (centres unmarked) [Example 132, 4-(3-(4-(4-(2,6-dimethylmorpholino)-7-(pyrimidin-5-yl)quinazolin-2-yl)-2-fluorophenyl)ureido)-N,N-dimethyl-benzamide] | 201 to 10000 | 201 to 10000 | 50 to 200 | 201 to 10000 |  | 
CN(C)C1CCN(C(=O)c2ccc(NC(=O)Nc3ccc(-c4nc(N5CCOCC5)c5cc(F)c(-c6cccnc6)cc5n4)cc3)cc2)C1 (stereo in doubt) [Example 198, (S)-1-(4-(3-(dimethylamino)pyrrolidine-1-carbonyl)phenyl)-3-(4-(6-fluoro-4-morpholino-7-(pyridin-3-yl)quinazolin-2-yl)phenyl)urea] | 201 to 10000 | 201 to 10000 | < 50 | < 50 |  | 
CC(=O)c1ccc(-c2ccc3c(N4CCOCC4)nc(-c4ccc(NC(=O)Nc5ccc(C(=O)N(C)C)cc5)cc4)nc3c2)o1 [Example 224, 4-(3-(4-(7-(5-acetylfuran-2-yl)-4-morpholino-quinazolin-2-yl)phenyl)ureido)-N,N-dimethyl-benzamide] | 201 to 10000 | 201 to 10000 | < 50 | < 50 |  | 

Next, values leading:

IC50 [1, 3] [nM] | IC50 (PC3 cells; [4]) [nM] | IC50 (mTOR kinase) [nM] | IC50 [2] [nM] | IC50 ([1]; In-cell Western) [nM] | IC50 (PC3 cells; cell viability) [nM] | SMILES
< 100 | 100 to 500 | < 50 | < 50 |  |  | CC(=O)Nc1cncc(-c2ccc3c(N4CCOCC4)nc(-c4ccc(NC(=O)Nc5ccc(C(=O)N(C)C)cc5)cc4)nc3c2)c1 [Example 66, 4-(3-{4-[7-(5-acetylamino-pyridin-3-yl)-4-morpholin-4-yl-quinazolin-2-yl]-phenyl}-ureido)-N,N-dimethyl-benzamide]
201 to 10000 | < 100 | < 50 | < 50 |  |  | CN(C)C(=O)c1ccc(NC(=O)Nc2ccc(-c3nc(N4CCOCC4)c4ccc(CO)cc4n3)cc2)cc1 [Example 285, 4-(3-(4-(7-(hydroxymethyl)-4-morpholino-quinazolin-2-yl)phenyl)ureido)-N,N-dimethyl-benzamide]
< 100 | 201 to 10000 | < 50 | 50 to 200 |  |  | CNC(=O)c1ccc(NC(=O)Nc2ccc(-c3nc(N4CCOCC4)c4ccc(-c5cncnc5)cc4n3)cc2)cc1 [Example 88, N-methyl-4-(3-(4-(4-morpholino-7-(pyrimidin-5-yl)quinazolin-2-yl)phenyl)ureido)-benzamide]
< 100 | 501 to 5000 | < 50 | < 50 |  |  | CN(C)C1CCN(C(=O)c2ccc(NC(=O)Nc3ccc(-c4nc(N5CCOCC5)c5ccc(-c6cccnc6F)cc5n4)cn3)cc2)CC1 [Example 81, 1-(4-(4-(dimethylamino)piperidine-1-carbonyl)phenyl)-3-(5-(7-(2-fluoropyridin-3-yl)-4-morpholine-quinazolin-2-yl)pyridin-2-yl)urea]
 |  | < 50 | < 50 | < 100 | < 100 | CN(C)C(=O)c1ccc(NC(=O)Nc2ccc(-c3nc(N4CCOCC4)c4ccc(-c5ccco5)cc4n3)cc2)cc1 [Example 80, N,N-dimethyl-4-(3-{4-[7-(furan-2-yl)-4-morpholin-4-yl-quinazolin-2-yl]-phenyl}-ureido)-benzamide]
201 to 10000 | 201 to 10000 | < 50 | < 50 |  |  | CN(C)C(=O)c1ccc(NC(=O)Nc2ccc(-c3nc(N4CCOCC4)c4ncc(-c5cccnc5F)cc4n3)c(F)c2)cc1 [Example 244, 4-(3-(3-fluoro-4-(7-(2-fluoropyridin-3-yl)-4-morpholino-pyrido[3,2-d]pyrimidin-2-yl)phenyl)ureido)-N,N-dimethyl-benzamide]
201 to 10000 | 201 to 10000 | < 50 | 50 to 200 |  |  | CN(C)C(=O)c1ccc(NC(=O)Nc2ccc(-c3nc(N4CCOCC4)c4ccccc4n3)cc2)cc1 [Example 179, N,N-dimethyl-4-(3-(4-(4-morpholino-quinazolin-2-yl)phenyl)ureido)-benzamide]
